Assay results as given in patent publication US11312712B2, “Azabenzimidazoles and their use as AMPA receptor modulators” (Janssen Pharmaceutica NV, priority 2015, dated 2022).

Target: GluA1o-γ8 (GRIA1o-CACNG8 fusion construct) (Homo sapiens (Human), UniProt P42261+Q8WXS5)
Assay: Calcium flux assay (FLIPR), inhibition of TARP γ8 dependent AMPA receptor activity
Type: cell-based
Conditions: GluA1o-γ8 (GRIA1o-CACNG8 fusion) in HEK293 cells, calcium flux after 15 μM glutamate
How it was run: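 HEK293 cells stably expressing a 1:1 GRIA1o–CACNG8 fusion were loaded with Calcium-5/6 dye plus compound in pH 7.4 HEPES-buffered saline. FLIPR calcium flux after 15 μM glutamate was normalized to untreated and 10 μM CP465022 controls, and a four-parameter logistic fit gave pIC50.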

Chain of GluA1o-γ8 (GRIA1o-CACNG8 fusion construct) (P42261 other isoform, or with tags, fused parts or gaps): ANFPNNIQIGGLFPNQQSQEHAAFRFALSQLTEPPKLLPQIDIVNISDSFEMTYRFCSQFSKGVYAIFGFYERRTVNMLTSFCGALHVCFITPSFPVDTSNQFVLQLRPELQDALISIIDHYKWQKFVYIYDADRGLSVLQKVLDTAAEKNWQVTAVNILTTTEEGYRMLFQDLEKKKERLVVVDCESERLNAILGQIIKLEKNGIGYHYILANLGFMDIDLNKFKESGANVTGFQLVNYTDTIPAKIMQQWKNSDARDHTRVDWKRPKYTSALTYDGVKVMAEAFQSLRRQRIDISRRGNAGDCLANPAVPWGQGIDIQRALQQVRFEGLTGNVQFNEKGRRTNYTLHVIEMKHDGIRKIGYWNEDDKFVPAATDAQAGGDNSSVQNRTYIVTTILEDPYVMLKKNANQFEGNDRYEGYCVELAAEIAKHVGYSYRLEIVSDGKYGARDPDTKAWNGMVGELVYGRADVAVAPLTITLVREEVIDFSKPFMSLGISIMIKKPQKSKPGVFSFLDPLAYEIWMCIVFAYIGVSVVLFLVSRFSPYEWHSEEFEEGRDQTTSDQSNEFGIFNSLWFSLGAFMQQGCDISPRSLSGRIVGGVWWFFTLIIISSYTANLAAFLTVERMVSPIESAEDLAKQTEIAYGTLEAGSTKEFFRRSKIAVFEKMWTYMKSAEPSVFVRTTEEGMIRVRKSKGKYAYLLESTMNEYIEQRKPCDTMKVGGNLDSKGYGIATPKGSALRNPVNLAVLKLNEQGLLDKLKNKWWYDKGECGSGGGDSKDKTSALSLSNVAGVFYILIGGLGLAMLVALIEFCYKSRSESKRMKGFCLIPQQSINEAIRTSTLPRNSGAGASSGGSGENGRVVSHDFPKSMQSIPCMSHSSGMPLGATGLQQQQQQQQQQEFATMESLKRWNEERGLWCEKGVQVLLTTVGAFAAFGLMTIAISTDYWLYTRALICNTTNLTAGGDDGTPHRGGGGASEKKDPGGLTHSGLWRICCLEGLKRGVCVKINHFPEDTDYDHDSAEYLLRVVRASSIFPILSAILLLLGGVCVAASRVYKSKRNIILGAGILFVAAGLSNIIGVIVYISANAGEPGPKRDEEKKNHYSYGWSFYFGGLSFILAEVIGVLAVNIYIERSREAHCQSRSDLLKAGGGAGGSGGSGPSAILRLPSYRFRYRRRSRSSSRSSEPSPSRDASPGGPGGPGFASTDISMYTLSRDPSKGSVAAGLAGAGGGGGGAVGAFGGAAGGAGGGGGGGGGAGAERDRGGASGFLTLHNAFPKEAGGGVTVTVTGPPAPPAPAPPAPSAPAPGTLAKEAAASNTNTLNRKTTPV

IC50 | SMILES
0.01 nM | Cc1cc(-n2c(C)cc3ccc(C(F)(F)F)nc32)cc2c1NC(=O)C2 [Example 331, 7-Methyl-5-(2-methyl-6-(trifluoromethyl)-1H-pyrrolo[2,3-b]pyridin-1-yl)indolin-2-one]
0.0398 nM | Cc1cc(-n2c(C(C)C)cc3cccnc32)cc2cn[nH]c12 [Example 332, 5-(2-Isopropyl-1H-pyrrolo[2,3-b]pyridin-1-yl)-7-methyl-1H-indazole]
6.31 nM | Cc1cc2cccnc2n1-c1cc(Cl)c2[nH]ncc2c1 [Example 333, 1-(7-Chloro-1H-indazol-5-yl)-2-methyl-pyrrolo[2,3-b]pyridine]
0.0398 nM | Cc1cc(-n2c(C(C)C)cc3ccc(C(F)F)nc32)cc2c1NC(=O)C2 [Example 334, 5-[6-(Difluoromethyl)-2-isopropyl-pyrrolo[2,3-b]pyridin-1-yl]-7-methyl-indolin-2-one]
0.0158 nM | CC(C)c1cc2ccc(C(F)(F)F)nc2n1-c1ccc2[nH]ncc2c1 [Example 335, 1-(1H-Indazol-5-yl)-2-isopropyl-6-(trifluoromethyl)pyrrolo[2,3-b]pyridine]
0.01 nM | Cc1cc(-n2c(C(F)F)cc3ccc(C(F)(F)F)nc32)cc2c1NC(=O)C2 [Example 336, 5-[2-(Difluoromethyl)-6-(trifluoromethyl)pyrrolo[2,3-b]pyridin-1-yl]-7-methyl-indolin-2-one]
0.126 nM | O=c1[nH]c2ccc(-n3c(C(F)F)cc4ccc(C(F)(F)F)nc43)cc2s1 [Example 337, 6-[2-(Difluoromethyl)-6-(trifluoromethyl)pyrrolo[2,3-b]pyridin-1-yl]-3H-1,3-benzothiazol-2-one]
7.94 nM | Cc1cc2cccnc2n1-c1cc(Cl)c2c(c1)CC(=O)N2 [Example 338, 7-Chloro-5-(2-methylpyrrolo[2,3-b]pyridin-1-yl)indolin-2-one]
79.4 nM | Cc1cc(-n2cc(O)c3ccc(C(F)(F)F)nc32)cc2cn[nH]c12 [Example 339, 1-(7-Methyl-1H-indazol-5-yl)-6-(trifluoromethyl)pyrrolo[2,3-b]pyridin-3-ol]
12.6 nM | Cc1cc(-n2cc(C(F)F)c3ccc(C(F)(F)F)nc32)cc2cn[nH]c12 [Example 340, 3-(Difluoromethyl)-1-(7-methyl-1H-indazol-5-yl)-6-(trifluoromethyl)pyrrolo[2,3-b]pyridine]
15.8 nM | Cc1ccc2ccn(-c3cc(C)c4[nH]ncc4c3)c2n1 [Example 341, 6-Methyl-1-(7-methyl-1H-indazol-5-yl)pyrrolo[2,3-b]pyridine]
0.251 nM | Cc1ccc2cc(C(C)C)n(-c3ccc4c(c3)CC(=O)N4)c2n1 [Example 342, 5-(2-Isopropyl-6-methyl-pyrrolo 2,3-bpyridin-1-yl)indolin-2-one]
631 nM | COc1ccc2cc(-c3ccc(F)cc3)n(-c3ccc4[nH]ccc4c3)c2n1 [Example 343, 2-(4-Fluorophenyl)-1-(1H-indol-5-yl)-6-methoxy-pyrrolo[2,3-b]pyridine]
501 nM | Fc1ccc(-c2cc3cccnc3n2-c2ccc3c(c2)CCN3)cc1 [Example 344, 2-(4-Fluorophenyl)-1-indolin-5-yl-pyrrolo[2,3-b]pyridine]
79.4 nM | Fc1ccc(-c2cc3cccnc3n2-c2ccc3[nH]ccc3c2)cc1 [Example 345, 2-(4-Fluorophenyl)-1-(1H-indol-5-yl)pyrrolo[2,3-b]pyridine]
3.98 nM | O=C1Cc2cc(-n3c(-c4ccc(F)cc4)c(Br)c4cccnc43)ccc2N1 [Example 346, 5-[3-Bromo-2-(4-fluorophenyl)pyrrolo[2,3-b]pyridin-1-yl]indolin-2-one]
2.51 nM | O=C1Cc2cc(-n3c(-c4ccc(F)cc4)cc4cccnc43)ccc2N1 [Example 347, 5-[2-(4-Fluorophenyl)pyrrolo[2,3-b]pyridin-1-yl]indolin-2-one]
100 nM | Fc1ccc(-c2cc3ccc(F)nc3n2-c2ccc3[nH]ccc3c2)cc1 [Example 348, 6-Fluoro-2-(4-fluorophenyl)-1-(1H-indol-5-yl)pyrrolo[2,3-b]pyridine]
3.98 nM | O=C1Cc2cc(-n3c(-c4ccc(F)cc4)c(Br)c4ccc(F)nc43)ccc2N1 [Example 349, 5-[3-Bromo-6-fluoro-2-(4-fluorophenyl)pyrrolo[2,3-b]pyridin-1-yl]indolin-2-one]
0.794 nM | O=C1Cc2cc(-n3c(-c4ccc(F)cc4)cc4ccc(F)nc43)ccc2N1 [Example 350, 5-[6-Fluoro-2-(4-fluorophenyl)pyrrolo[2,3-b]pyridin-1-yl]indolin-2-one]
25.1 nM | Cc1cc2ccc(C(F)(F)F)nc2n1-c1ccc2[nH]ccc2c1 [Example 351, 1-(1H-Indol-5-yl)-2-methyl-6-(trifluoromethyl)pyrrolo[2,3-b]pyridine]
0.501 nM | Cc1cc2ccc(C(F)(F)F)nc2n1-c1ccc2c(c1)CC(=O)N2 [Example 352, 5-[2-Methyl-6-(trifluoromethyl)pyrrolo[2,3-b]pyridin-1-yl]indolin-2-one]

IC50 | SMILES
12.6 nM | Cc1cc(-n2c(C)cc3cccnc32)cc2c1NC(=O)C2 [Example 353, 7-Methyl-5-(2-methyl-1H-pyrrolo[2,3-b]pyridin-1-yl)indolin-2-one]
0.501 nM | Cc1cc2ccc(C(F)(F)F)nc2n1-c1ccc2[nH]ncc2c1 [Example 354, 5-(2-Methyl-6-(trifluoromethyl)-1H-pyrrolo[2,3-b]pyridin-1-yl)-1H-indazole]
0.02 nM | Cc1cc2ccc(C(F)(F)F)nc2n1-c1ccc2[nH]c(=O)sc2c1 [Example 355, 6-(2-Methyl-6-(trifluoromethyl)-1H-pyrrolo[2,3-b]pyridin-1-yl)benzo[d]thiazol-2(3H)-one]
0.02 nM | CC(C)c1cc2cccnc2n1-c1cc(Cl)c2[nH]ncc2c1 [Example 356, 1-(7-Chloro-1H-indazol-5-yl)-2-isopropyl-pyrrolo[2,3-b]pyridine]
0.0316 nM | CC(C)c1cc2cccnc2n1-c1cc(Cl)c2c(c1)CC(=O)N2 [Example 357, 7-Chloro-5-(2-isopropylpyrrolo[2,3-b]pyridin-1-yl)indolin-2-one]
0.2 nM | Cc1cc(-n2c(C(C)C)cc3cccnc32)cc2c1NC(=O)C2 [Example 358, 5-(2-Isopropylpyrrolo[2,3-b]pyridin-1-yl)-7-methyl-indolin-2-one]
10 nM | Cc1cc(-n2c(C3CC3)cc3cccnc32)cc2c1NC(=O)C2 [Example 359, 5-(2-Cyclopropylpyrrolo[2,3-b]pyridin-1-yl)-7-methyl-indolin-2-one]
0.0631 nM | Cc1ccc2cc(C(C)C)n(-c3cc(C)c4c(c3)CC(=O)N4)c2n1 [Example 360, 5-(2-Isopropyl-6-methyl-pyrrolo[2,3-b]pyridin-1-yl)-7-methyl-indolin-2-one]
7.94 nM | CC(C)c1cc2cccnc2n1-c1cc(F)c2c(c1)CC(=O)N2 [Example 361, 7-Fluoro-5-(2-isopropylpyrrolo[2,3-b]pyridin-1-yl)indolin-2-one]
0.0398 nM | Cc1ccc2cc(C(C)C)n(-c3cc(F)c4c(c3)CC(=O)N4)c2n1 [Example 362, 7-Fluoro-5-(2-isopropyl-6-methyl-pyrrolo[2,3-b]pyridin-1-yl)indolin-2-one]
200 nM | Cc1cc2cccnc2n1-c1cc(F)c2c(c1)CC(=O)N2 [Example 363, 7-Fluoro-5-(2-methylpyrrolo[2,3-b]pyridin-1-yl)indolin-2-one]
3160 nM | Cc1cc2ccc(C(F)(F)F)nc2n1-c1cc(F)c2c(c1)CC(=O)N2 [Example 364, 7-Fluoro-5-[2-methyl-6-(trifluoromethyl)pyrrolo[2,3-b]pyridin-1-yl]indolin-2-one]
0.631 nM | COCc1cc2ccc(C(F)(F)F)nc2n1-c1cc(F)c2c(c1)CC(=O)N2 [Example 366, 7-Fluoro-5-[2-(methoxymethyl)-6-(trifluoromethyl)pyrrolo[2,3-b]pyridin-1-yl]indolin-2-one]
0.0251 nM | Cc1cc(-n2c(C(C)C)cc3ccc(C(F)(F)F)nc32)cc2c1NC(=O)C2 [Example 367, 5-[2-Isopropyl-6-(trifluoromethyl)pyrrolo[2,3-b]pyridin-1-yl]-7-methyl-indolin-2-one]
0.00794 nM | CC(C)c1cc2ccc(C(F)(F)F)nc2n1-c1cc(F)c2c(c1)CC(=O)N2 [Example 369, 7-Fluoro-5-[2-isopropyl-6-(trifluoromethyl)pyrrolo[2,3-b]pyridin-1-yl]indolin-2-one]
0.00794 nM | Cc1cc(-n2c(C(C)C)cc3ccc(C(F)(F)F)nc32)cc2cn[nH]c12 [Example 370, 2-Isopropyl-1-(7-methyl-1H-indazol-5-yl)-6-(trifluoromethyl)pyrrolo[2,3-b]pyridine]
0.0398 nM | Cc1cc(-n2c(CCCF)cc3ccc(C(F)(F)F)nc32)cc2cn[nH]c12 [Example 371, 2-(3-Fluoropropyl)-1-(7-methyl-1H-indazol-5-yl)-6-(trifluoromethyl)pyrrolo[2,3-b]pyridine]
0.0316 nM | FCCCc1cc2ccc(C(F)(F)F)nc2n1-c1cc(Cl)c2[nH]ncc2c1 [Example 372, 1-(7-Chloro-1H-indazol-5-yl)-2-(3-fluoropropyl)-6-(trifluoromethyl)pyrrolo[2,3-b]pyridine]
0.0501 nM | Cc1cc(-n2c(C)cc3ccc(C(F)(F)F)nc32)cc2cn[nH]c12 [Example 373, 2-Methyl-1-(7-methyl-1H-indazol-5-yl)-6-(trifluoromethyl)pyrrolo[2,3-b]pyridine]
0.0126 nM | Cc1cc2ccc(C(F)(F)F)nc2n1-c1cc(Cl)c2[nH]ncc2c1 [Example 374, 1-(7-Chloro-1H-indazol-5-yl)-2-methyl-6-(trifluoromethyl)pyrrolo[2,3-b]pyridine]
10 nM | Cc1cc(-n2c(C)cc3cccnc32)cc2cn[nH]c12 [Example 375, 2-Methyl-1-(7-methyl-1H-indazol-5-yl)pyrrolo[2,3-b]pyridine]
0.0501 nM | CC(C)c1cc2ccc(C(F)(F)F)nc2n1-c1cnc2[nH]ncc2c1 [Example 376, 5-[2-Isopropyl-6-(trifluoromethyl)pyrrolo[2,3-b]pyridin-1-yl]-1H-pyrazolo[3,4-b]pyridine]
